Test results taken from publication PMC7822816, “Halo-fluorescein for photodynamic bacteria inactivation in extremely acidic conditions” (Nature Communications, 2021).

Legend:
[1] = system: C. albicans; test: IC50 of photodynamic inactivation, C. albicans; settings: Candida albicans, 10 min, pH 3, read-out: IC50 (C. albicans)
Protocol: (§1) For quantitative comparison, the half-maximal inhibitory concentrations (IC50) of TIF for these bacterial were measured (Supplementary Table 6, and Supplementary Figs. 51–58).
Bacterial strains are listed in Supplementary Table 6. S. aureus and MRSA, and C. albicans were provided by West China Hospital of Stomatology, Sichuan University. A. acidoterrestris, S. enterica, H. pylori, L. plantarum, and E. coli were provided by College of Life Science, Sichuan University. The bacteria were cultured overnight in a constant temperature oscillator (37 °C, 170 r/min, the specific culture conditions were listed in Supplementary Table 6). Suspensions of bacteria (100 μL, diluted 1000-folds, PBS) were added with different concentration PSs (final volume of 1 mL), and irradiated with LED (λ = 520 nm, 35 mW/cm^2) for 10 min. Then, the treated bacteria liquid (100 μL) were added into the culture medium and cultured in a 24-well plate. The OD600 of bacteria was measured to obtain the bacteria CFUs, and the survival rate were calculated as C/C0 × 100%, where C is the CFU of sample which treated with PSs and light, and C0 is the blank without any treatment. All photodynamic sterilizations were carried out in at least three replicates.
Irradiation: 520 nm green LED (6 mW/cm2), 10 min. Error bars = Standard Deviation (n=3).
Irradiation: 520 nm green LED (6 mW/cm2), 10 min.

[2] = system: L. plantarum; test: Photodynamic inhibition of L. plantarum (coating plate method); assay type: cell-based, Lactobacillus plantarum
[3] = system: E. coli; test: IC50 / growth inhibition of photodynamic inactivation, E. coli
Protocol: (§2) The bacteria were cultured overnight in a constant temperature oscillator (37 °C, 170 r/min, the specific culture conditions were listed in Supplementary Table 6). Suspensions of bacteria (100 μL, diluted 1000-folds, PBS) were added with different concentration PSs (final volume of 1 mL), and irradiated with LED (λ = 520 nm, 35 mW/cm^2) for 10 min. Then, the treated bacteria liquid (100 μL) were added into the culture medium and cultured in a 24-well plate. The OD600 of bacteria was measured to obtain the bacteria CFUs, and the survival rate were calculated as C/C0 × 100%, where C is the CFU of sample which treated with PSs and light, and C0 is the blank without any treatment. All photodynamic sterilizations were carried out in at least three replicates.
(§3) Growth inhibition of E. coli by different concentrations of TIF.
(§4) Irradiation: 520 nm green LED (6 mW/cm2), 10 min. Error bars = Standard Deviation (n=6).
(§5) Growth inhibition of Salmonella by different concentrations of
(§6) TIF. Irradiation: 520 nm green LED (6 mW/cm2), 10 min.

[4] = system: S. aureus; test: IC50 of photodynamic inactivation, S. aureus; settings: Staphylococcus aureus, 10 min, pH 2.5, read-out: IC50 (S. aureus)
Protocol: as §1
S. aureus and MRSA, and C. albicans were provided by West China Hospital of Stomatology, Sichuan University. A. acidoterrestris, S. enterica, H. pylori, L. plantarum, and E. coli were provided by College of Life Science, Sichuan University. The bacteria were cultured overnight in a constant temperature oscillator (37 °C, 170 r/min, the specific culture conditions were listed in Supplementary Table 6). Suspensions of bacteria (100 μL, diluted 1000-folds, PBS) were added with different concentration PSs (final volume of 1 mL), and irradiated with LED (λ = 520 nm, 35 mW/cm^2) for 10 min. Then, the treated bacteria liquid (100 μL) were added into the culture medium and cultured in a 24-well plate. The OD600 of bacteria was measured to obtain the bacteria CFUs, and the survival rate were calculated as C/C0 × 100%, where C is the CFU of sample which treated with PSs and light, and C0 is the blank without any treatment. All photodynamic sterilizations were carried out in at least three replicates.

[5] = system: Salmonella; test: IC50 of photodynamic inactivation, Salmonella; settings: 10 min, pH 2.5, read-out: IC50 (Salmonella)
Protocol: as §2, §3, §4, §5, §6

[6] = system: C. albicans; test: Fresh food preservation (infected tomato model); set-up: species or system Candida albicans
Excerpt: Besides fruit juices, the potential of TIF for photo-assisted fresh food preservation was also investigated with tomato as the model (pH 3.0). […] Therefore, the food additive TIF is also promising for fresh food preservation.
Tomatoes were selected as the model for photo-assisted fresh food preservation. All the tomatoes were divided into six groups, and made a wound of ~7 cm^2 by hot water. […] Afterward, the tomatoes were stored at room temperature and then subjected to repeated irradiation at day 2. The total viable counts of bacteria on the infected tomatoes were measured in day 3.

[7] = pH titration of halogenated fluorescein (pH0.5); assay type: physicochemical
Protocol: The pH0.5 values (the pH value when the open form reduce to the half of the maximum) of various fluorescein derivatives were determined experimentally through pH titration (Supplementary Figs. 6–16).
The pH of the solutions were adjusted through varying the ratios of citric acid and Na2HPO4 (pH 2.2–8.0), and further acidity was adjusted with concentrated HCl or 1 M NaOH. The absorption and fluorescence spectra of the resultant solutions were then collected.
Section S5. pH-dependent Properties of the Halogenated Fluoresceins.
S5.1 pH titration of halogenated fluorescein
Fluorescein derivatives (Supplementary Table 1) were dissolved in DMSO to obtain 1 mM stock solutions and then diluted with citric acid-Na2HPO4 buffer (100 mM) to 10
μM. The pH of the solutions were adjusted through varying the ratios of citric acid and Na2HPO4 (pH 2.2-8.0), and further acidity was adjusted with concentrated HCl or 1 M
NaOH. The absorption and fluorescence spectra of the resultant solutions were then

[8] = Photophysical characterization (absorption, fluorescence, phosphorescence, lifetime); assay type: physicochemical
Protocol: Section S6. Photophysical Characterizations
S6.1 Absorption, fluorescence, and phosphorescence spectra
Fluorescein and its derivatives were dissolved in DMSO to obtain 1 mM stock solutions.
The stock solutions were diluted with deionized water to 10 μM.
Supplementary Figure 20. The absorption (black), fluorescence (blue), and phosphorescence (red, slit 25 nm) spectra of FL.
Supplementary Figure 21. The absorption (black), fluorescence (blue), and phosphorescence (red, slit 25 nm) spectra of DCF.
S6.2 Fluorescence lifetime
Fluorescence decay samples was recorded with Fluorolog-3 (Horiba). The solution of samples were prepared to be 5 μM in 0.5% (v/v) DMSO, and diluted with 0.1M NaOH.
S6.5 Photophysical properties of the halogenated-fluorescein derivatives
Supplementary Table 4. Photophysical Properties of Halogenated-fluorescein derivatives. […]
a Measured in 2% DMSO; b Measured in 2% DMSO citric acid -disodium hydrogen phosphate buffer; c Measured in a mixed solvent of D 2O and CH3CN (VD2O:
VCH3CN = 1: 15); d The solution of samples were prepared to be 5 μM in 0.5% (v/v) DMSO, and diluted with 0.1 M NaOH.

[9] = 1O2 phosphorescence emission under different pH and irradiance; assay type: physicochemical; settings: pH 2.2 (the gastric acidity), 10 μM
Excerpt: To evaluate the pH-dependent ^1O2 generation, TIF, PB, and RB were chosen here because of their high ^1O2 generation efficiency and low pH0.5. […] Similar results from PB and RB were also observed (Supplementary Figs. 17 and 18). When pH was lowered down to 2.2 (the gastric acidity), appreciable ^1O2 phosphorescence emission was still collected from TIF, indicating the good performance of TIF in photosensitized generation of ^1O2 in extremely acidic condition. Besides, the pH-induced decrease of ^1O2 generation could be compensated through enlarging the light irradiance. […] Therefore, TIF featured good performance for potential photodynamic bacteria inactivation at extremely acidic conditions.
A total of 10 μM TIF solutions were first prepared with citric acid–Na2HPO4 buffer (100 mM, diluted by D2O) to yield different pH (2.2–6.0). Then, a laser of 532 nm was selected as the lighting source, and the ^1O2 phosphorescence emission were collected.
S5.3 1O2 phosphorescence emission of TIF under different pH and irradiance 10 μM TIF solutions were first prepared with citric acid-Na2HPO4 buffer (100 mM, diluted by D2O) to yield different pH (2.2-6.0). The pH value of solution were adjust by HCl (c, diluted by D2O). Then, laser of 532 nm was selected as the light source, and the 1O2 phosphorescence emission were collected by near infrared detector (H-10330)
Supplementary Figure 19. […]

[10] = system: broad band of aciduric bacteria; test: Photodynamic inactivation, summary over aciduric bacteria; settings: read-out: IC50 (broad band of aciduric bacteria)
Protocol: as §1, §2

[11] = system: C. albicans infection of oral mucosa
Excerpt: The extremely acidic environment was constructed through changing the pH of the mucosa and diluting PSs in pH 3.0 PBS buffer. […] During the investigations, the infected ICR mice were divided into six groups (six mice per group): blank, light, TIF, TIF + light, Ce 6 + light, and Zn-tpp + light. For comparison and better visualization of the infection, a normal group (no infection) was also included.
To construct the oral mucosal infection model, cotton balls immersed in solutions containing 10^8 CFU/mL of C. albicans were placed in the mouth of mice for 75 min. At day 1 and day 3, 50 μL pH 3.0 PBS and PSs (20 μM, diluted by pH 3.0 PBS) were added to oral mucosa, and treated with different lasers (510 nm for TIF, 660 nm for Ce 6 and Zn-tpp, 50 mW/cm^2) for 10 min.
To investigate the therapy effect, photographs, colonies, weights, and pathology index of mice were taken every other day. After day 3, one mouse in each group was sacrificed, and the tissues of oral mucosa were harvested for hematoxylin and eosin (H&E) staining. The pathology index was evaluated based on the standard given in Supplementary Table 10.

For `O=C(O)c1ccccc1-c1c2cc(I)c(=O)c(I)c-2oc2c(I)c(O)c(I)cc12` [TIF, 2′,4′,5′,7′-tetraiodofluorescein], the IC50 [1] was 1.04 µM, the “antimicrobial activity at different pH” value ([2]; 0.5 μM, light, pH range 2.5–7.0) was “considerable antimicrobial activity” and the “dark toxicity (bacteria growth)” value ([2]; no light, concentration up to 50 μM) was “no significant inhibition of bacteria growth”. For the same molecule, the “live/dead bacterial staining (SYTO 9/propidium iodide)” value ([2]; pH 2.5, 10 μM, irradiation 1 h) was “bright red fluorescence”, the “membrane integrity (SEM, TEM)” value ([2]; pH 2.5, 10 μM, irradiation 1 h) was “obvious deformation and distortion parts” and the Inhibition ratio ([3]; E.coli, dose 0.5 μM, 3 V/3 W, 6 mW/cm2, 10 min) was greater than 99.3%. It also gave an IC50 ([3]; Escherichia coli, 10 min, pH 2.5, read-out: IC50 (E. coli)) of 0.21 µM, an IC50 [4] of 0.37 µM and an IC50 [5] of 0.63 µM. For the same molecule, the “wound infection of tomatoes, without light” value ([6]; 10 μM in pH 3.0 PBS, TIF only) was “different magnitudes of wound infection”, the “colony counting of infected tomatoes” value ([6]; day 3, 10 μM, pH 3.0, 520 nm LED) was “excellent antimicrobial ability” and the pH0.5 ([7]; 2% DMSO citric acid-disodium hydrogen phosphate buffer (Supplementary Table 4)) was 4.07. The “lowering of pH0.5 compared with fluorescein” value ([7]; difference to fluorescein (6.09)) was 2.02 units, the kdec [8] was 1e+11 s⁻¹ and the knr [8] was 9.97e+10 s⁻¹. The krad [8] was 3e+08 s⁻¹, the maximum absorption [8] was 526 nm and the ΦFL ([8]; 5 μM in 0.5% (v/v) DMSO, diluted with 0.1 M NaOH) was 0.003. The λAbs ([8]; 2% DMSO) was 527 nm, the λPh ([8]; 2% DMSO) was 701 nm and the λem ([8]; 2% DMSO) was 551 nm. The τfl ([8]; fluorescence lifetime, 5 μM in 0.5% DMSO, 0.1 M NaOH) was 0.01 ns, the “1O2 phosphorescence emission (1270 nm)” value [9] was “appreciable” and the IC50 [10] was less than 1.1 µM. The “pseudo membrane on tongue” value ([11]; TIF + light group) was “disappeared gradually”, the “body weight loss of infected mice” value ([11]; TIF + light group, within 7 days) was “least loss” and the pathology index ([11]; TIF + light group, 20 μM in pH 3.0 PBS, 510 nm 50 mW/cm^2 10 min, day 1 and day 3) was “remained almost unchanged”. The “H&E staining of tongue sections, without light” value ([11]; TIF group, no light) was “large amounts of inflammation infiltration” and the “H&E staining of tongue sections, with light” value ([11]; photosensitizer + light (510 nm TIF, 660 nm Ce 6 and Zn-tpp)) was “generally similar to that of the normal group”.
